# Columns and labels:
# [1] = tested on: NiV-mediated fusion (HeLa cells expressing NiV F and G, U373 target cells)
# [2] = tested on: HeV-mediated fusion (HeLa cells expressing HeV F and G, U373 target cells)
compound,measurement,setting,value
CC[C@H](C)[C@H](NC(=O)[C@H](Cc1ccc(O)cc1)NC(=O)[C@H](CC(=O)O)NC(=O)[C@H](CCCCN)NC(=O)[C@H](CO)NC(=O)[C@H](CCC(N)=O)NC(=O)[C@H](CCC(N)=O)NC(=O)[C@H](CC(C)C)NC(=O)[C@H](CO)NC(=O)[C@H](CCC(N)=O)NC(=O)[C@H](CC(N)=O)NC(=O)[C@H](CCSC)NC(=O)[C@H](CO)NC(=O)[C@H](CO)NC(=O)[C@@H](NC(=O)[C@H](CCC(N)=O)NC(=O)[C@H](CO)NC(=O)[C@H](CO)NC(=O)[C@@H](NC(=O)[C@H](CC(=O)O)NC(=O)[C@@H](NC(=O)[C@H](CCCCN)NC(=O)[C@H](CC(=O)O)NC(=O)[C@@H](NC(=O)[C@H](Cc1ccccc1)NC(=O)[C@@H](NC(=O)[C@@H]1CCCN1C(=O)[C@@H]1CCCN1)C(C)C)[C@@H](C)O)C(C)C)[C@@H](C)CC)[C@@H](C)CC)C(=O)N[C@@H](CCCCN)C(=O)N[C@@H](CCC(=O)O)C(=O)N[C@@H](C)C(=O)N[C@@H](CCC(N)=O)C(=O)N[C@@H](CCCNC(=N)N)C(=O)N[C@@H](CC(C)C)C(=O)N[C@@H](CC(C)C)C(=O)N[C@@H](CC(=O)O)C(=O)N[C@H](C(=O)N[C@H](C(=O)N[C@@H](CC(N)=O)C(=O)N1CCC[C@H]1C(=O)N[C@@H](CO)C(=O)N[C@@H](CC(C)C)C(=O)O)C(C)C)[C@@H](C)O [NiV FC1],IC50,[1],5.2 to 5.8 nM
same,Inhibition of NiV-mediated fusion (in words),[1],completely inhibitory in the nM range
same,IC50,[2],5.2 to 5.8 nM
same,Inhibition of HeV-mediated fusion (in words),[2],completely inhibitory in the nM range

# From patent US8114410B2, “Composition and methods for the inhibition of membrane fusion by paramyxoviruses” (priority 2001, dated 2012)
